In assay [1] the target is T1, ELIC-α1GABAAR (Homo sapiens, UniProt P14867). As to the kind of experiment: KK200 photolabelling competition, middle-down MS. It counts as binding. Particulars: 3 μM KK200, 30 μM competitor. As to the method: The synthesis of the NS photolabelling reagent KK200 is detailed in previous reports ([W. W. L. Cheng et al., 2018]; [Jiang et al., 2016]). […] The samples were then irradiated in a quartz cuvette for 5 min, using a photoreactor emitting light at >320 nm ([Germann et al., 2021]). Sample preparation for tryptic digestion and analysis by LC–MS was performed as previously described ([Sugasawa et al., 2019]). Peptides were separated on a home-packed PLRP-S (Agilent, Santa Clara, CA, USA) column (10 cm × 75 μm, 300 Å) using a 135-min gradient from 10% to 90% acetonitrile and introduced to an Orbitrap-Elite mass spectrometer (Thermo Fisher Scientific, Waltham, MA, USA; RRID:SCR_020548) at 800 nl·min^−1 with a nanospray source. MS acquisition was set as an MS1 Orbitrap scan (resolution of 60,000) followed by top 20 MS2 Orbitrap scans (resolution of 15,000) using data-dependent acquisition and exclusion of singly charged precursors. Fragmentation was performed using high-energy dissociation with normalized energy of 35%. Analysis of data sets was performed using Xcalibur (Thermo Fisher Scientific, Waltham, MA, USA; RRID: SCR_014593) to manually search for TM1, TM2, TM3 or TM4 tryptic peptides with or without NS photolabelling modifications. Photolabelling efficiency was estimated by generating extracted chromatograms of unlabelled and labelled peptides, determining the area under the curve, and calculating the (area of labelled peptide/(area of unlabelled + area of labelled peptide). MS2 spectra of photolabelled TMD peptides were analysed by manual assignment of fragment ions with and without photolabelling modification.

The target of another assay is α1β3 GABAA receptors. Set-up: method as in Tateiwa et al., 2023. Particulars: ref Tateiwa et al., 2023; read-out: apparent Kd; cited from earlier work.
Assay [2] deals with T2, ELIC-α1^W246LGABAAR (Homo sapiens, UniProt P14867, W273L). As to the kind of experiment: biochemical. It counts as binding. The method, then: ELIC-α1GABAAR was expressed and purified according to a previously published protocol ([Q. Chen et al., 2018]). The purified protein was aliquoted and stored at −80°C. Mutagenesis was performed as described in previous reports ([Kinde et al., 2016]) by oligonucleotide-directed mutagenesis using Phu polymerase (Thermo Fisher Scientific, Waltham, MA, USA) verified by sequencing. ELIC-α1GABAAR was expressed in OverExpress™ C43(D3) E. coli, derived from Rosetta™(DE3) cells under double selection with kanamycin and chloramphenicol for ELIC-α1GABAAR.
One hundred microlitres of purified ELIC-α1GABAAR (0.3 μM in Buffer A + 0.015% DDM) was transferred into a 50-μl window quartz cuvette (Starna Cells, Atascadero, CA, USA), which was placed in a cuvette holder maintained at 4°C. […] Two microlitres of NaI (AK Scientific, Union City, CA, USA; 5-M stock prepared in 0.1-Mm sodium hydrosulfite [Sigma-Aldrich, St. Louis, MO, USA]) was added to the protein (final concentration = 100 mM) and incubated for 10 min to reduce the fluorescence emission from hydrophilic tryptophans. To measure the concentration–dependent effects of NS on tryptophan fluorescence, 1 μl of NS from each 100× stock solution was sequentially added to the NaI-equilibrated protein and thoroughly mixed to achieve concentrations from 0.01 to 50 μM. […]

Assay [3] has as its target T2, ELIC-α1^W246LGABAAR. Briefly: Inhibition of MQ290 FRET by NS in W246L receptors. It counts as binding. Particulars: 30 μM NS; MQ290 1 μM. The method, then: (§1) One hundred microlitres of ELIC-α1GABAAR (0.3 μM) was transferred into a 50-μl window quartz cuvette maintained at 4°C, and NaI was added to the protein sample to a final concentration of 100 mM and incubated for 10 min. MQ290 was then added at a concentration of 3 μM for 3α-OH NS inhibition curves or 1 μM for 3β-OH NS inhibition curves and incubated for 30 min. One-microlitre aliquots of 3α-OH and 3β-OH NS from their corresponding stock solutions (prepared in Buffer A + 0.015% DDM) were added to achieve concentrations between 0.01 and 30 μM. The background emission spectra of ligands alone were obtained for each ligand concentration in the absence of protein and were subtracted from the protein-ligand emission spectra to yield background subtracted data. The MQ290 FRET spectra for different ligand concentrations were estimated using the method described above. The 370-nm intensities of the FRET spectra were plotted against ligand concentration and fitted to a four-parameter logistic curve to obtain IC50 data (GraphPad Software version 9.4.0, San Diego, CA). Ki values were calculated using the relationship: Ki=IC50/1+LT/Kd

The target of assay [4] is T1, ELIC-α1GABAAR. It counts as binding. The method, then:
as §1
where LT is the concentration of MQ290 and Kd was determined from the MQ290 binding curve.

Entries after “also recorded” stand apart in the source; their conditions may differ.

As usually defined, the IC50 is the concentration at which inhibition is half-maximal. One may read the Hill slope as the slope factor of the fitted curve.

T1 sequence (P14867 other isoform, or with tags, fused parts or gaps): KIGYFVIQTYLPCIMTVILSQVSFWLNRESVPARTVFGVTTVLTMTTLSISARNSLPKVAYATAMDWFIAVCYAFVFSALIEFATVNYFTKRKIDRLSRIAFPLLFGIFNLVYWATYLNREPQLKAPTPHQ
T1 sequence (P0C7B7 1-198, further chain): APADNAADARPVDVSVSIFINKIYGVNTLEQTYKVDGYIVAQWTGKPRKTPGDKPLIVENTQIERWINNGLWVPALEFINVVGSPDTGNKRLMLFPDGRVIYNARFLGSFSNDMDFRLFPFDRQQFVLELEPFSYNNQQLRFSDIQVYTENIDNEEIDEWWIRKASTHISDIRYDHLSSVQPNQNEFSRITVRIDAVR
T2 sequence (P14867 other isoform, or with tags, fused parts or gaps W273L): as the sequence (P14867 other isoform, or with tags, fused parts or gaps) above, with W25L counted along it
T2 sequence (P0C7B7 1-198, further chain): as the sequence (P0C7B7 1-198, further chain) above

Take `CC(=O)[C@H]1CC[C@H]2[C@@H]3CC[C@H]4C[C@H](O)CC[C@]4(C)[C@H]3CC[C@]12C` [AlloP, allopregnanolone]: the “prevention of KK200 photolabelling of TM3 (Y309)” value on ELIC-α1GABAAR [1] is “significantly different than control; also recorded: prevented”. Further, at α1β3 GABAA receptors, the Kd is 100 ± 50 nM. Besides, 500 ± 210 nM corresponded to half-maximal inhibition on ELIC-α1^W246LGABAAR [2] (IC50). Besides, at ELIC-α1^W246LGABAAR [3], the “inhibition of remaining MQ290 FRET signal in W246L” value was “reduced by neither”. The molecule further had a Hill slope at ELIC-α1GABAAR [4] (3α-OH NS, MQ290 3 μM) of −1.89 ± 0.26. Moreover, on ELIC-α1GABAAR [4] (MQ290 binding curves with 3×Kd and 30 μM NS), the “mechanism of inhibition of MQ290 binding” value was “competitive interaction”.
